From patent publication US5633231A, “Valine-containing pseudopeptides with antiviral activity” (Bayer Aktiengesellschaft, priority 1993, dated 1997) come the findings set out here.

For one data set, the system named is HCMV (Davis). Description: Anti-HCMV (Davis) activity: inhibition of the cytopathogenic effect in HELF cell cultures, 96-well screening test. The class given is cell-based, human cytomegalovirus. The protocol:
(§1) The anti-HCMV effect was determined in a screening test system in 96-well microtitre plates with the aid of human embryonic lung fibroblast (HELF) cell cultures. The influence of the substances on the spread of the cytopathogenic effect was compared with that of the reference substance ganciclovir ([…]® sodium), a clinically approved anti-HCMV chemotherapeutic agent. The substances, dissolved (50 mM) in DMSO (dimethyl sulphoxide), are investigated on microtitre plates (96-well) at final concentrations of 1000-0.00048 μM (micromolar) in double determinations (4 substances/plate). In this test, both the toxic and cytostatic effects of the substances are recorded. […] After staining with neutral red and fixing with formalin/methanol, the plates are evaluated using a projection microscope (plaque viewer).
A general note: Damage to the host cells serves as the signal in cytopathic effect assays.

Data set [1] relates to human embryonic lung fibroblast (HELF) cell cultures. The data set can be described thus: Anti-cellular (toxic and cytostatic) effect on HELF cells in the same screening test. The class given is cell-based. The note with it: 6 days at 37° C. The protocol:
as §1

For the compound `Nc1nc(O)c2ncn(COC(CO)CO)c2n1` [Cymevene^R Na, ganciclovir], the “SI (selectivity index)” value with HCMV (Davis) (HELF versus HCMV, definition given only as a drawing) is on record as 32-64. Besides, the IC50 with HCMV (Davis) (Human betaherpesvirus 5, 144 h, read-out: IC50 (μM) (HCMV) = concentration which elicits 50% inhibition of the CPE, HCMV (Davis)-infected HELF cells, 6 days, neutral red staining) fell in the range of 2 to 4 µM. Besides, the “CIC50 (μM) (HELF) = highest concentration at which no obvious anticellular effect is evident” value in data set [1] was found to be 125 µM.
